Test results published in the NIST ThermoML archive (doi:10.1021/je4008298).
± gives the expanded uncertainty stated by the source.

Assay: mn = molality of the nth substance listed, in mol/kg
Conditions: for viscosity / mass density: 101.3 kPa, Liquid; for viscosity: Capillary tube (Ostwald / Ubbelohde) method; for surface tension liquid-gas: Pendant drop shape

NC(CO)CO [2-amino-1,3-propanediol] + O
Conditions | mass density, 293.2 K [kg/m3] | mass density, 300.2 K [kg/m3] | mass density, 307.2 K [kg/m3] | mass density, 313.2 K [kg/m3] | surface tension liquid-gas, 298.2 K [mN/m] | surface tension liquid-gas, 313.2 K [mN/m] | viscosity, 293.2 K [mPa·s] | viscosity, 300.2 K [mPa·s] | viscosity, 307.2 K [mPa·s] | viscosity, 313.2 K [mPa·s]
m1 = 0.953 | 1012.63 ± 0.72 | 1010.28 ± 0.77 | 1008.07 ± 0.82 | 1005.49 ± 0.86 | – | – | 1.244 ± 0.018 | 1.056 ± 0.018 | 0.896 ± 0.017 | 0.8 ± 0.017
m1 = 0.959 | – | – | – | – | 71.7 ± 0.6 | 69.4 ± 0.6 | – | – | – | –
m1 = 2.052 | 1026.97 ± 0.74 | 1024.18 ± 0.79 | 1021.61 ± 0.84 | 1019.22 ± 0.88 | – | – | 1.606 ± 0.02 | 1.335 ± 0.019 | 1.118 ± 0.018 | 0.983 ± 0.017
m1 = 2.151 | – | – | – | – | 71.3 ± 0.6 | 69 ± 0.6 | – | – | – | –
m1 = 3.459 | – | – | – | – | 70.8 ± 0.6 | 68.6 ± 0.6 | – | – | – | –
m1 = 3.464 | 1041.67 ± 0.76 | 1038.8 ± 0.81 | 1036.8 ± 0.86 | 1033.49 ± 0.91 | – | – | 2.157 ± 0.024 | 1.769 ± 0.021 | 1.458 ± 0.02 | 1.275 ± 0.018
m1 = 4.693 | 1052.77 ± 0.79 | 1050.01 ± 0.83 | 1047.38 ± 0.88 | 1044.53 ± 0.92 | – | – | 2.784 ± 0.027 | 2.261 ± 0.024 | 1.845 ± 0.022 | 1.588 ± 0.02
m1 = 4.745 | – | – | – | – | 70.4 ± 0.6 | 68.3 ± 0.6 | – | – | – | –
